Series [1] has as its system HIV latency reservoir (resting CD4+ T cells). In words: HIVE assay with ddPCR of total HIV DNA, three HIV latency reservoir models. In kind it is cell-based. The conditions noted are these: A-463 only (100 nM per FIG. 9E); all three models; p<0.01. Here is the method:
(§1) For each condition tested, up to 200×10^6 PBMC were thawed from leukapheresis material. An aliquot of PBMCs was stained with antibodies to CD3, CD4, CD8, HLA-DR, and CD69 for flow cytometry analysis (pre-selection sample). Resting CD4^+ T-cells were enriched from these PBMC by negative selection (Easysep CD4^+ T-cell enrichment kit, Stemcell Technologies) following the manufacturer's instructions. Cells were washed and re-suspended in 1 ml of 2% FBS PBS and an aliquot was stained as above (post-selection sample). To proceed, >98% pure resting CD4^+ T-cells in the negative fraction we required. […]
(§2) Co-cultures were harvested at 4 days post-initiation of co-culture. […] CD4^+ T-cells were then fixed in 2% paraformaldehyde, and analyzed by flow cytometry on an LSR-II instrument and with FlowJo software.
(§3) DNA quantification: 2×10^6 cells/condition were centrifuged and DNA, for ddPCR, was extracted from cell pellets using the Gentra Puregene kit (Qiagen), following the manufacturer's instructions. This DNA was then analyzed by digital droplet polymerase chain reaction (see below). Infectious virus quantification: The remaining cells, to be used for viral outgrowth assays, were incubated overnight in R10-50+4 nM IL-15SA (ALT-803) at a concentration of 2×10^6 cells/ml. These cells are then plated out in quantitative viral outgrowth assays (see below). […]

Series [2] shares this test system. In words: HIVE assay with quantitative viral outgrowth (IUPM), three HIV latency reservoir models. In kind it is cell-based. The conditions noted are these: A-463 only (100 nM per FIG. 9F); all three models; p<0.01. Here is the method: as §1, §2, §3
In the next series the test system is Bcl-2 family proteins. The conditions noted are these: selectivity within the Bcl-2 family, Table 1; cited from earlier work.
The subject of the next series is resting CD4+ T cells. Nature of the series: Cell cytotoxicity in HIV latency reservoir model cultures. In kind it is cell-based, human. Conditions: ABT-199 at 1 μM; not enough cells left to measure replication-competent virus (FIG. 9A). The method, then: For each condition tested, up to 200×10^6 PBMC were thawed from leukapheresis material. An aliquot of PBMCs was stained with antibodies to CD3, CD4, CD8, HLA-DR, and CD69 for flow cytometry analysis (pre-selection sample). Resting CD4^+ T-cells were enriched from these PBMC by negative selection (Easysep CD4^+ T-cell enrichment kit, Stemcell Technologies) following the manufacturer's instructions. Cells were washed and re-suspended in 1 ml of 2% FBS PBS and an aliquot was stained as above (post-selection sample). To proceed, >98% pure resting CD4^+ T-cells in the negative fraction we required.
NK cells and CTL clones were added at 1:10 effector:target ratios, with or without the indicated latency reversing agents. Co-cultures were performed at 2×10^6 cells/ml in XVIVO-15 serum free medium (Lonza) that had been supplemented with penicillin-streptomycin, L-glutamine, 0.1 nM IL-7 (to support survival), 1 μM tenofovir, 1 μM nevirapine, 1 μM emtricitabine, 10 μM T20, 10 U/ml DNAse I (ProSpec) ([…]). […]
Co-cultures were harvested at 4 days post-initiation of co-culture. […] CD4^+ T-cells were then fixed in 2% paraformaldehyde, and analyzed by flow cytometry on an LSR-II instrument and with FlowJo software. […]

In a further series the target is Bcl-xL (Homo sapiens, UniProt Q07817). The conditions noted are these: Table 1; cited from earlier work.
Chain of Bcl-xL (Q07817 whole entry): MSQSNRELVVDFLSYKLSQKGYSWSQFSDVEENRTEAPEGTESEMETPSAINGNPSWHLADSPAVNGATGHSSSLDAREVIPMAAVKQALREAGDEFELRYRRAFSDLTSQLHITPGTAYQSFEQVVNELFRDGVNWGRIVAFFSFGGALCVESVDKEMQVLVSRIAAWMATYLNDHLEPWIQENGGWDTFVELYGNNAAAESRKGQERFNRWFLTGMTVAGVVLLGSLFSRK
The subject of series [3] is HIV latency reservoir models spiked into natural reservoirs. In words: 'Spiked' HIVE assay with QVOA (latency model cells spiked into natural reservoirs). Conditions: Bryostatin 10 nM, ABT-199 100 nM, HIV-specific CTLs, FIG. 10. In kind it is cell-based. The method, then:
For experiments using CTL clones as effectors, clones were used at […] after their most recent re-stimulation. Specificity, functionality, and responsiveness of CTLs were confirmed by CD107a degranulation assays, as well as by HIV elimination assays the day before assay setup. Clones were washed extensively prior to addition to co-culture.
NK cells and CTL clones were added at 1:10 effector:target ratios, with or without the indicated latency reversing agents. […]
as §2, §3

On to `CN(C)CC#Cc1ccc(OCCCc2sc(N3CCc4cccc(C(=O)Nc5nc6ccccc6s5)c4C3)nc2C(=O)O)c(F)c1` [A-1155463], for which, in series [1], the “total HIV DNA copies” value is given as “statistically significant reduction”. For the same molecule, the “infectious replicative competent (IUPM)” value in series [2] is on record as “statistically significant reduction”. For the same molecule, the Selective/pan entry in the series on Bcl-2 family proteins is given as “Selective”.
With `Cc1nn(C)c(COc2ccc(N3CCN(S(=O)(=O)N(C)C)CC3)cc2)c1-c1cccc2c(CCCOc3cccc4ccccc34)c(C(=O)O)n(CCN3CCOCC3)c12` [A-1210477], in the series with Bcl-2 family proteins, the Selective/pan result is reported as “Selective”.
As for `Cc1c(-c2ccc(N3CCc4cccc(C(=O)Nc5nc6ccccc6s5)c4C3)nc2C(=O)O)cnn1CC12CC3CC(CC(C3)C1)C2` [A-1331852], in the series with Bcl-2 family proteins, the Selective/pan entry is listed as “Selective”.
In the case of `CC1(C)CCC(CN2CCN(c3ccc(C(=O)NS(=O)(=O)c4ccc(NCC5CCOCC5)c([N+](=O)[O-])c4)c(Oc4cnc5[nH]ccc5c4)c3)CC2)=C(c2ccc(Cl)cc2)C1` [ABT-199, Venetoclax], the cell cytotoxicity result in the series on resting CD4+ T cells is “cell cytotoxicity”.
For `Cc1cc2c(C(C)C)c(O)c(O)c(C=O)c2c(O)c1-c1c(C)cc2c(C(C)C)c(O)c(O)c(C=O)c2c1O` [AT101], the “Known Bcl-xL inhibition” value on Bcl-xL is recorded as “Yes”. The Selective/pan entry in the series on Bcl-2 family proteins is listed as “Pan”.
Regarding `CC(C)C(C(=O)O)N1C(=O)/C(=C\c2ccc(Br)cc2)SC1=S` (centres unmarked) [BH31-1], on Bcl-xL, the “Known Bcl-xL inhibition” value is “Yes”. In addition, the Selective/pan result in the series with Bcl-2 family proteins is reported as “Pan”.
For the molecule `CCC/C=C/C=C/C(=O)O[C@H]1/C(=C/C(=O)OC)C[C@H]2C[C@H]([C@@H](C)O)OC(=O)C[C@H](O)C[C@@H]3C[C@H](OC(C)=O)C(C)(C)[C@](O)(C[C@@H]4C/C(=C/C(=O)OC)C[C@H](/C=C/C(C)(C)[C@]1(O)O2)O4)O3` [Bryostatin, bryostatin 1], the “IUPM compared to the NoTx condition” value in series [3] is recorded as “did not lead to significant decreases”.
Consider `CC(C)=CCC[C@]1(C)C=Cc2c(O)c3c(c(CC=C(C)C)c2O1)O[C@]12C(=C[C@@H]4C[C@H]1C(C)(C)O[C@@]2(C/C=C(/C)C(=O)O)C4=O)C3=O` [Gambogic Acid], for which the “Known Bcl-xL inhibition” value at Bcl-xL is recorded as “Yes”. In the series with Bcl-2 family proteins, the Selective/pan entry was “Pan”.
As to `Cc1cc2c(C(=O)NC[C@H](C)c3ccccc3)c(O)c(O)cc2c(O)c1-c1c(C)cc2c(C(=O)NC[C@H](C)c3ccccc3)c(O)c(O)cc2c1O` [Sabutoclax], the “Known Bcl-xL inhibition” value on Bcl-xL is “Yes”. For the same molecule, in the series with Bcl-2 family proteins, the Selective/pan result is “Pan”.
Regarding `CC(C)c1ccccc1Cc1cc(C(=O)Nc2ccc(S(=O)(=O)c3ccccc3C(C)(C)C)cc2)c(O)c(O)c1O` [TW-37], on Bcl-xL, the “Known Bcl-xL inhibition” value is “Yes”. In addition, the Selective/pan entry in the series on Bcl-2 family proteins was “Pan”.
On to `O=C(O)CSc1cc(NS(=O)(=O)c2ccc(Br)cc2)c2ccccc2c1O` [UMI-77], for which the Selective/pan entry with Bcl-2 family proteins was “Selective”.
As to ABT-263, the “Known Bcl-xL inhibition” value on Bcl-xL is “Yes”. Moreover, the Selective/pan entry in the series on Bcl-2 family proteins is given as “Pan”.
